Assay results published in patent US20030138429A1, “Compositions and methods for inhibiting metastasis” (priority 2001, published 2003).

Columns and labels:
[1] = system: 1-LN human prostate tumor cells; assay: Binding of 125I-labeled Pg 2 glycoforms to 1-LN cells; conditions: 125I-labeled glycoform 0.1 μM, increasing concentrations of inhibitor
Procedure: Ligand Binding Analysis—Cells were grown in tissue culture plates until the monolayers were confluent. Prior to use in binding assays, the cells were washed in HBSS. All binding assays were performed at 4° C. in RPMI 1640 containing 2% bovine serum ablumin (BSA). Increasing concentrations of ^125I-labeled Pg 2 glycoforms were incubated with cells for 60 min in 48-well or 96-well culture plates, respectively. Free ligand was separated from bound by aspirating the incubation mixture by and washing the cell monolayers rapidly three times with RPMI 1640 containing 2% BSA. The cells were then lyzed with 0.1 M NaOH, and bound radioactivity was determined in a Pharmacia LKB Biotechnology 1272-gamma counter. Molecules of ligand bound were calculated after substraction of non-specific binding measured in the presence of nonlabeled 100 μM Pg 2. Estimates for dissociation constant (Kd) values and maximal binding of Pg 2 glycoforms (Bmax) were determined by fitting data directly to the Langmuir isotherm using the statistical program SYStat® for Windows.
Binding of Single Pg 2 Glycoforms to 1-LN Human Prostate Tumor Cells—Binding of ^125I-labeled single Pg 2 glycoforms to 1-LN cells was determined as described under Experimental Procedures. Native Pg 2 has six glycoforms which differ in their sialic acid content.
In order to assess the binding mechanism of the individual Pg 2 glycoforms to 1-LN cells, we studied their activation by cells incubated with each glycoform in the presence of 6-aminohexanoic acid (6-AHA) and L-lactose. The antifibrinolytic amino acid 6-AHA prevents interaction of Pg L-lysine binding sites with several cell membrane-associated components. L-lactose is a sugar which intereferes with binding of Neu 5-AC (α2-3) or (α2-6) residues to sialic acid binding proteins and inhibits binding of Native Pg 2 to DPP IV on the surface of rheumatoid synovial fibroblasts.

1-LN cells [2] = assay: MMP-9 activity in serum-free culture medium of 1-LN cells (quantitative gelatin zymography); format: cell-based, human
Procedure: Gelatin Zymography—Protein samples were electrophoresed on gelatin-containing 0.75 mm thick 10% polyacrylamide gels in the presence of SDS under nonreducing conditions. After completion of the electrophoretic run, the gels were incubated with two changes of 2.5% Triton X-100 for 1 h, followed by incubation for 18 h at 37° C. in 0.1 M glycine-NaOH, pH 8.3, containing 1 mM CaCl2, and […], before staining with Coomassie Brilliant Blue R-250 to visualize the lysis bands.
MMP-9 Activity in Solution—MMP-9 activity was measured in tissue culture supernatants by quantitative zymography using as a standard MMP-9 purified by affinity chromatography on gelatin-Sepharose from 1-LN cell conditioned medium (10 liters). Conditioned medium (50 μl), from 1-LN cell monolayers in 48 well culture plates (1.7×10^6 cells/well) incubated with Pg 2 glycoforms and/or inhibitors of Pg binding or activation, were electrophoresed on gelatin-containing gels and the degree of lysis was quantified using a Gelman ACD-15 Automatic Computing Densitometer (Gelman Instrument Company, Ann Arbor, Mich.). Values were determined by integrating the density of the selected bands and expressed in units×mm^2. Each gel was scanned three times and the average value of the integrated density of the bands was used to determine levels of MMP-9 from calibration curves constructed with purified active MMP-9 electrophoresed under the same conditions. The statistical analysis of the data was performed on an IBM 433 DX/S computer using the program SYSTAT® for Windows 95. The statistical significance of differences between means was evaluated by Student's t-test. MMP-9 was positively identified in conditioned medium by electrophoretic separation in 10% SDS-polyacrylamide gels (SDS-PAGE), electroblot of the electrophoresed proteins to nitrocellulose membranes and reaction with an anti-MMP-9 mAb (1 μg/ml) followed by reaction with a secondary alkaline phosphatase conjugated anti-mouse IgG. Detection was performed by reaction with the alkaline phosphatase substrate 5-bromo-4-chloro-3-indolyl phosphate in the presence of nitroblue tetrazolium (1 mM each) in 10 mM Tris-HCl, pH 8.5.
Effect of Pg on the Expression of MMP-9 by 1-LN Cells—Cells were seeded into 48-well culture plates and grown in RPMI 1640 containing 10% fetal bovine serum. Confluent monolayers were then incubated for 24 h with quiescent culture medium containing RPMI 1640 and 0.5% fetal bovine serum. Each individual Pg 2 glycoform (0.1 μM) was added in triplicate to cell monolayers in 300 μl of serum-free RPMI 1640 and incubated for 24 h at 37° C. Culture medium was collected to measure secretion of MMP-9 as described under Experimental Procedures. Prior to analyses of the MMP-9 secreted into the medium by 1-LN cells in the presence of individual Pg 2 glycoforms, we purified MMP-9 from conditioned medium (5 liters) by the technique of Masure et al.. […] A similar analysis of the Mr˜95,000 protein yielded the sequence APRQRQ, corresponding to the amino-terminal sequence of proMMP-9. […] We then proceeded to analyze the MMP-9 secreted into the medium by 1-LN cells incubated with each individual Pg 2 glycoform in serum-free culture medium, using the purified MMP-9 as a standard for quantification by gelatin zymography. These analyses (FIG. 7A) show a major band of active protein with a Mr˜85,000. […] Samples of these conditioned media were also subjected to SDS-PAGE under reducing conditions, electroblotted to nitrocellulose membranes and then reacted with an anti-MMP-9 mAb (FIG. 7B). […] A 4-fold decrease in the production of MMP-9 by cells co-incubated with anti-DPP IV mAb 236.3 and Pg 2ε (p<0.001) (Table II) is clearly observed in the conditioned medium (Lane 6 on FIGS. 8A and 8B, respectively).

1-LN cells [3] = assay: In vitro Matrigel invasion assay (modified Boyden chamber); format: cell-based, human; conditions: cells incubated with Pg (Pg 2ε) plus inhibitor, in words
Procedure: In Vitro Invasion Assay—The invasive activity in vitro was assessed by determining the ability of 1-LN cells to invade Matrigel® [47]. Polycarbonate filters (8-μm pore size; Becton Dickinson, Franklin Lakes, N.J.) were coated with Matrigel (12 μg/filter) and placed in a modified Boyden chamber. Cells (1×10^5) were added to the upper chamber in serum-free RPMI 1640 medium, or medium containing purified Pg 2 glycoforms in the absence and presence of anti-DPP IV, anti-u-PA or anti-MMP-9 IgGs, and incubated for 48 h in a humidified atmosphere. Following incubation, non-invading cells were removed from the upper chamber with a cotton swab, and filters were excised and stained with Cyto-Quik™ (Fisher Scientific, Fair Lawn, N.J.). Cells on the lower surface of the filter were enumerated using an ocular micrometer and counting a minimum of five high-powered fields. Each experiment was performed twice with triplicate samples.
Effect of Pg on 1-LN Cellular Invasion—Pg enhances the ability of prostate cancer PC-3 and DU-145 cell lines to penetrate the synthetic basement membrane Matrigel® [54]. To determine whether Pg regulates invasion via secretion of MMP-9, 1-LN cells were incubated with different inhibiting antibodies in the presence of purified Pg 2 glycoforms.

Row | Compound | Inhibition of binding of single Pg 2 glycoforms to 1-LN cells [1] | Active MMP-9 (1-LN cells [2]; SFM + additive alone, no Pg 2 glycoform, 24 h) [ng/mL] | Changes in the production of MMP-9 (1-LN cells [2]; co-incubated with 6-AHA (100 mM) and individual Pg 2 glycoforms, versus controls) | Effect on Pg-induced Matrigel invasion by 1-LN cells (1-LN cells [3])
1 | NCCCCCC(=O)O [Glycoform 6-AHA, 6-aminohexanoic acid, reference compound] | inhibited the binding of Pg 2α and Pg 2β | 0.61 ± 0.14 | did not show any major changes | 
2 | FN peptide L1768 TSRPA: polypeptide comprising the fibronectin (FN) primary sequence L1768 TSRPA that mediates FN binding to CD26/DPP IV (FPAPDG; UniProt P02751 1768-1773, looked up, fragment) |  |  |  | inhibited Pg-induced Matrigel invasion by 1-LN cells in a dose-dependent manner
3 | angiostatin |  |  |  | total inhibition
